# From patent US11324743B2, “Treatment for the non alcoholic steatohepatitis and fibrosis” (METABOLYS, priority 2016, dated 2022)
# Assays:
# [1] = test system: NASH mice (STAM model); experiment: In vivo study 2 to assess effects on fibrosis (STAM model); design: species or system C57BL/6 mice
# Text: (§1) The study was made on STAM model.
# (§2) Pathogen-free fourteen day-pregnant C57BL/6 mice have been obtained from Japan SLC, Inc. (Japan). NASH has been established in male mice by a single subcutaneous injection of streptozotocin (Sigma, USA) after birth and feeding with a high fat diet (CLEA Japan, Japan) ad libitum after four weeks of age (day 28±2). Mice have been randomized into three groups of ten mice at six weeks of age (day 42±2), and three groups of ten mice at nine weeks of age (day 63±2), in the days before the start of treatment. Individual body weights have been measured daily during the treatment period. Food consumption has been measured twice per week during the treatment period. Survival, clinical signs and behavior of mice have been monitored daily.
# The fibrosis in vivo study had 3 arms:
# (§3) Group 1 (Vehicle): Ten NASH mice have been orally administered the same vehicle (0.5% methyl cellulose in water) as the mice receiving compound (1).
# Group 2 (Telmisartan): Five mice have been administered the same vehicle supplemented with Telmisartan at a dose of 100 mg/kg (in 0.5% methyl cellulose in water) once daily from nine to twelve (9 to 12) weeks of age.
# Group 3 (compound (1)): Ten NASH mice have been orally administered vehicle supplemented with compound (1) at a dose of 100 mg/kg (in 0.5% methyl cellulose in water) once daily from nine to twelve (9 to 12) weeks of age. The assessed parameters and histological outcome measures are described below.
# (§4) The following measurements have been conducted for both in vivo studies: • Individual liver weight • Individual body weight • Plasma ALT (Alanine AminoTransferase), AST (Aspartate AminoTransferase), triglyceride, and total cholesterol have been measured by FUJI DRI-CHEM (Fujifilm, Japan) • Liver triglyceride has been quantified by Triglyceride E-test kit (Wako, Japan) • Histological analyses for liver sections (according to routine methods) • HE (Hematoxylin Eosin) staining and estimation of NAFLD Activity score (NAS) […]
# [2] = test system: NASH mice (STAM model); experiment: In vivo study 1 to assess effects on NASH (STAM model); design: species or system C57BL/6 mice
# Text: as §1, §2
# The NASH in vivo study had 3 arms:
# as §3
# Group 2 (Telmisartan): Five mice have been administered the same vehicle supplemented with Telmisartan at a dose of 100 mg/kg (in 0.5% methyl cellulose in water) once daily from six to nine (6 to 9) weeks of age.
# Group 3 (compound (1)): Ten NASH mice have be orally administered vehicle supplemented with compound (1) at a dose of 100 mg/kg (in 0.5% methyl cellulose in water) once daily from six to nine (6 to 9) weeks of age. The assessed parameters and histological outcome measures are described below.
# as §4
# [3] = test system: STAM animal model; conditions: reference compound; cited from earlier work
SMILES,amount of liver triglycerides (TG) ([1]; 100 mg/kg orally once daily from 9 to 12 weeks of age (FIG. 2)),"amount of plasma triglycerides (TG) ([1]; 100 mg/kg orally once daily from 9 to 12 weeks of age (FIG. 3), effect especially in study 2)","NAFLD activity score (NAS) ([1]; 100 mg/kg orally once daily from 9 to 12 weeks of age, in comparison to both vehicle and Telmisartan)",amount of liver triglycerides (TG) ([2]; 100 mg/kg orally once daily from 6 to 9 weeks of age (FIG. 2)),amount of plasma triglycerides (TG) ([2]; 100 mg/kg orally once daily from 6 to 9 weeks of age (FIG. 3)),"NAFLD activity score (NAS) ([2]; 100 mg/kg orally once daily from 6 to 9 weeks of age, in comparison to both vehicle and Telmisartan)",activity to treat NASH and fibrosis [3]
O=C(O)CCC(=O)c1ccc(OCCN2CCN(c3ccccn3)CC2)cc1 [Compound (1)],reduction,reduction,significant reduction,reduction,reduction,significant reduction,
CCCc1nc2c(C)cc(-c3nc4ccccc4n3C)cc2n1Cc1ccc(-c2ccccc2C(=O)O)cc1 [Telmisartan],,,,,,,active
